Laboratory results reported in patent US20250099357A1, “ANT[…] WITH BETA CARBOLINE ALKALOID AND PHENOLIC ACID AND CO[…]” (Conopco, Inc., d/b/a UNILEVER, priority 2021, published 2025).

Columns and labels:
[1] = tested on: Enterobacter gergoviae ATCC 33028; experiment: Liquid broth assay (MIC and checkerboard) against Enterobacter gergoviae; type: cell-based; settings: Pluralibacter gergoviae, ATCC33028, component by itself, 30° C., 24 hours, OD600, <25% growth vs control, read-out: minimal inhibitory concentration (MIC)
Excerpt: (§1) Naturally derived antimicrobial systems were made, as shown below by combining the beta carboline alkaloid and phenolic acid. Two pools were set up and each pool contained 1 organism. The strains involved were Enterobacter gergoviae ATCC 33028 of the family Pluralibacter gergoviae, a Gram-negative and Aspergillus brasiliensis ATCC 16404. The FIC test range was 16 times greater than the projected MIC for each sample.
(§2) The differing behaviors of inhibitory antimicrobials in isolation and mixtures have been widely explored using the concept of the Fractional Concentration and Fractional Inhibitory Concentration (FIC). See for instance JRW Lambert and R Lambert, J. Appl. Microbiol 95, 734 (2003); T. Jadavji, CG Prober and R Cheung, Antibacterial Agents and Chemotherapy 26, 91 (1984), and WO 2004/006876. MIC is the minimum inhibitory concentration a component prevents visible growth of a microbe. The FC and FIC parameters can be defined as follows: […]
(§3) Liquid broth assays (MIC and checkerboard) were conducted to identify the minimum concentration(s) of individual and binary combinations of natural preservation materials. […] Each of the two-preservation chemical/broth mixes was then combined in a third 96 well plate at varying concentrations and then inoculated with 1-5x106 microorganisms and incubated at 30° C. for 24 hours, after which optical densities at OD600 nm were measured.

[2] = tested on: Aspergillus brasiliensis ATCC 16404; experiment: Liquid broth assay (MIC and checkerboard) against Aspergillus brasiliensis; type: cell-based; settings: ATCC16404, component by itself, 30° C., 24 hours, OD600, <25% growth vs control
Excerpt: as §1, §2, §3

`COc1cc(C(=O)O)cc(OC)c1O` [Syringic Acid, 4-Hydroxy-3,5-dimethoxybenzoic acid] was tested, and the MIC [1] was > 50 mg/mL and the MIC [2] was > 50 mg/mL.
